The values that follow are results of earlier work, collected in patent US7771760B2, “Oils of capsaicinoids and methods of making and using the same” (NeurogesX, Inc., priority 2005, dated 2010).

On to `COc1cc(CNC(=O)CCCC/C=C/C(C)C)ccc1O` [capsaicin], for which the “solubility in organic solvents” value (benzene, alcohol, ketone, ether and paraffin oils) is reported as “soluble”. Also, the “solubility in cold water” value (cold water) is reported as “sparingly soluble”.
